Drawing on US20210253598A1, “ARYL ANNULATED MACROCYCLIC INDOLE DERIVATIVES” (priority 2017, published 2021), this text covers EC50 and IC50 for 8 compounds.

Series [1] deals with SUDHL10. Kind of series: Induction of caspase-3/7 activity in SUDHL10 cells (Assay 4). The format is cell-based. To be noted: Homo sapiens, SU-DHL10, 3 h. The procedure, abridged:
(§1)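 DLBCL lines SUDHL5 and SUDHL10 were treated with compound for 3 h at 37 °C. Caspase-3/7 activity was then read by Caspase-Glo 3/7 luminescence after 1 h at 37 °C. Medium-only background was subtracted and values were normalized to the mean of DMSO-treated cells.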

A further series deals with AMO-1. Kind of series: Anti-proliferative effect in AMO-1 cells, CellTiter-Glo (Assay 7). The conditions noted are these: several values per example. The series is classed as cell-based. The method, then: (§2) Assessment of the Anti-Proliferative Effect of Compounds in Different Cell Lines
(§3) The impact of compounds on the proliferation of different cell lines was assessed using the CellTiter-Glo® Luminescent Cell Viability reagent from Promega (G7573).
(§4) In parallel, cells were plated in a reference (day 0) plate for time zero determination. Cells were incubated in a humidified incubator at 37° C. overnight.
(§5) Rim wells were excluded. The cells were incubated for 72 hours in a humidified incubator at 37° C. The day 0 plate was measured by adding 30 μL/well of CTG solution (CellTiter-Glo® Luminescent Cell Viability reagent, Promega G7573) to time zero wells in the reference plate followed by a 10 minutes incubation and luminescence reading at 0.1 ms. using the PHERAstar FS microplate reader (BMG Labtech).
(§6) After 72 hours incubation, the treated plates were measured in the same way as the day 0 plate mentioned above. The Bella DRC Master Sheet was used to calculate IC50s, with CI=day 0 values and C0=DMSO control values.
On the technique in general: Cellular ATP, detected with luciferase, serves as a proxy for viable cell number.

In series [2] the test system is SUDHL10. Description: Induction of cytotoxicity in SUDHL10 cells, CellTiter-Glo (Assay 6). The series is classed as cell-based. The conditions noted are these: SUDHL10, 5 hours incubation, median, read-out: Cytotox SUDHL10 [M] (median). The procedure, abridged:
(§7)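 Cells plated and held overnight at 37° C in a humidified incubator, then compound-treated for 5 hours at 37° C. Viability read by CellTiter-Glo luminescence after 15 minutes shaking at room temperature; cell-free medium served as control.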

The subject of series [3] is SUDHL5. Description: Induction of caspase-3/7 activity in SUDHL5 cells (Assay 4). To be noted: Homo sapiens, SU-DHL-5, 3 h. The series is classed as cell-based. The procedure, abridged: as §1
The test system of series [4] is SUDHL5. Description: Induction of cytotoxicity in SUDHL5 cells, CellTiter-Glo (Assay 6). The format is cell-based. To be noted: SUDHL5, 5 hours incubation, median, read-out: Cytotox SUDHL5 [M] (median). Summed up:
as §7

A further series concerns MV-4-11. Kind of series: Anti-proliferative effect in MV-4-11 cells, CellTiter-Glo (Assay 7). The series is classed as cell-based. The conditions noted are these: several values per example. How it is done:
as §2, §3, §4, §5, §6

Another series has as its target MCL-1 (Homo sapiens, UniProt Q07820, K194A/K197A/R201A). Description: Protein-protein interaction assay MCL-1/Noxa BH3 peptide, TR-FRET (MCL-1 assay, Assay 1). The format is binding. To be noted: MCL-1 Assay [M] (median), MBP-MCL-1 / Noxa BH3 peptide. The procedure, abridged:
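Human MBP-fused MCL-1 (aa 173-321; 1 nM final) was pre-incubated 10 min at 22 °C with compound in pH 7 Tris buffer containing NaCl, KF, Tween-20, DTT and BGG. Displacement of biotinylated Noxa BH3 peptide was read by TR-FRET (anti-MBP-Eu cryptate/streptavidin-XL665) after 1 h at 22 °C plus overnight at 4 °C. IC50 came from four-parameter fits against DMSO controls.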
For orientation: Time-resolved FRET reads energy transfer from a long-lived donor to a nearby acceptor.

Series [5] deals with SUDHL5. Description: Anti-proliferative effect in SUDHL5 cells, CellTiter-Glo (Assay 7). The series is classed as cell-based. To be noted: Homo sapiens, SU-DHL-5, 72 h. Summed up: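 Cells plated and incubated overnight at 37° C, then exposed to compound for 72 hours. Viability read as CellTiter-Glo luminescence, with a day 0 plate as time-zero reference. IC50 calculated with day 0 values and DMSO control values as references.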

[6] abbreviates: SUDHL10, 3 hours treatment, Caspase-Glo 3/7, median, read-out: Caspase SUDHL10 [M] (median).
The mark [7] stands for this setting: Homo sapiens, AMO1, 72 h, AMO-1, 72 hours incubation, CellTiter-Glo, read-out: Antiproli AMO-1.
[8] abbreviates: SUDHL5, 3 hours treatment, Caspase-Glo 3/7, median, read-out: Caspase SUDHL5 [M] (median).
The mark [9] stands for this setting: Homo sapiens, MV4-11, 72 h, MV-4-11, 72 hours incubation, CellTiter-Glo, read-out: Antiproli MV-4-11.
Setting [10] is: SUDHL5, 72 hours incubation, CellTiter-Glo, median, read-out: Antiproli SUDHL5 [M] (median).

Structures can show the parent of a compound that is named as a salt. Where two headings read alike, the source gives them in different places. Where only a bound is given, the exact number is not on record here.

Sequence of MCL-1 (Q07820 173-321 K194A/K197A/R201A, looked up): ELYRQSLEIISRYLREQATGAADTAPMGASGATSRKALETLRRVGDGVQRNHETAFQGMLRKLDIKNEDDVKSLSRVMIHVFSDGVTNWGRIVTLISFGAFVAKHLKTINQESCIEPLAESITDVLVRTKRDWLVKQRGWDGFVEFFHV

`Cc1c2c(nn1C)COCc1nccnc1Cn1c(C(=O)O)c(CCCOc3cccc4ccccc34)c3ccc(Cl)c-2c31` (racemic) [Example 45, (rac)-3-Chloro-4,5-dimethyl-17-{3-[(naphthalen-1-yl)oxy]propyl}-5,7,9,14-tetrahydropyrazino-[2′,3′:3,4]pyrazolo[4′,3′:9,10][1,6]oxazacycloundecino[8,7,6-hi]indole-16-carboxylic Acid]: the EC50 with SUDHL10 [1] (setting [6]) was found to be 7.9e-06 M; in the series on SUDHL5 [3] (setting [8]), 2.2e-06 M. The IC50 with AMO-1 (setting [7]) was found to be 9.56e-06 M; in the series on SUDHL10 [2] (Homo sapiens, SU-DHL10, 5 h) it was 8.2e-06 M; in the series with SUDHL5 [4] (Homo sapiens, SU-DHL-5, 5 h) it was 2.7e-06 M; in the series with MV-4-11 (setting [9]) it was 1.19e-05 M.

Turning to `CCc1nn(CCN2CCOCC2)c2c1-c1c(Cl)ccc3c(CCCOc4cccc5cc(F)ccc45)c(C(=O)O)n(c13)Cc1ccccc1COC2` (racemic) [Example 51, (rac)-3-Chloro-4-ethyl-17-{3-[(6-fluoronaphthalen-1-yl)oxy]propyl}-6-[2-(morpholin-4-yl)ethyl]-6,7,9,14-tetrahydroindolo[7,1-fg]pyrazolo[3,4-d][2,8]benzoxazacycloundecine-16-carboxylic Acid], the EC50 in the series with SUDHL10 [1] (setting [6]) turned out to be 1.8e-06 M; with SUDHL5 [3] (setting [8]), 8.7e-07 M. Moreover, the IC50 turned out to be 2.64e-06 M in the series on AMO-1 (AMO-1, 72 hours incubation, CellTiter-Glo, read-out: Antiproli AMO-1); 4.26e-06 M in the series with AMO-1 (setting [7]); 1.9e-06 M in the series on SUDHL10 [2] (Homo sapiens, SU-DHL10, 5 h); 1.5e-09 M on MCL-1; 1.1e-06 M in the series with SUDHL5 [4] (Homo sapiens, SU-DHL-5, 5 h); 1.96e-06 M in the series with MV-4-11 (setting [9]). Further, the IC50 in the series on MV-4-11 (MV-4-11, 72 hours incubation, CellTiter-Glo, read-out: Antiproli MV-4-11) turned out to be 2.58e-06 M; with SUDHL5 [5] (setting [10]), 7.1e-07 M.

As to `Cc1nn(C)c2c1-c1c(F)ccc3c(CCCOc4cccc5c4CCCC5)c(C(=O)O)n(c13)Cc1ccccc1COC2` (racemic) [Example 83, (rac)-15-Fluoro-12,14-dimethyl-1-(3-((5,6,7,8-tetrahydronaphthalen-1-yl)oxy)propyl)-4,9,11,12-tetrahydrobenzo[3,4]pyrazolo[4′,3′:9,10][1]oxa[6]azacycloundecino[8,7,6-hi]indole-2-carboxylic Acid], the EC50 in the series with SUDHL10 [1] (setting [6]) was 1.2e-05 M; with SUDHL5 [3] (setting [8]), 4.6e-06 M. The IC50 worked out at 1.61e-05 M in the series with AMO-1 (setting [7]); 5.5e-06 M in the series with SUDHL10 [2] (Homo sapiens, SU-DHL10, 5 h); 1e-08 M against MCL-1; 3.4e-06 M in the series on SUDHL5 [4] (Homo sapiens, SU-DHL-5, 5 h); 1.18e-05 M in the series on MV-4-11 (setting [9]); 4.9e-06 M in the series with SUDHL5 [5] (setting [10]).

With `Cc1cc(OCCCc2c(C(=O)O)n3c4c(c(F)ccc24)-c2c(C)nn(C)c2COCc2ccccc2C3)cc(C)c1Cl` (racemic) [Example 85, (rac)-1-(3-(4-chloro-3,5-dimethylphenoxy)propyl)-15-fluoro-12,14-dimethyl-4,9,11,12-tetrahydrobenzo[3,4]pyrazolo[4′,3′:9,10][1]oxa[6]azacycloundecino[8,7,6-hi]indole-2-carboxylic Acid], the figures for the EC50 in the series on SUDHL10 [1] (setting [6]) and with SUDHL5 [3] (setting [8]) were 2e-05 M and 3.7e-06 M, respectively. For the same compound, the IC50 with AMO-1 (setting [7]) amounted to 2.37e-05 M; with SUDHL10 [2] (Homo sapiens, SU-DHL10, 5 h), 6.5e-06 M; against MCL-1, 1.2e-08 M; with SUDHL5 [4] (Homo sapiens, SU-DHL-5, 5 h), 3.3e-06 M; in the series on MV-4-11 (setting [9]) it was 1.7e-05 M; in the series with SUDHL5 [5] (setting [10]), 6.9e-06 M.

Turning to `CCc1nn(C)c2c1-c1c(F)ccc3c(CCCOc4cc(C)c(Cl)c(C)c4)c(C(=O)O)n(c13)Cc1ccccc1COC2` (racemic) [Example 86, (rac)-1-(3-(4-Chloro-3,5-dimethylphenoxy)propyl)-14-ethyl-15-fluoro-12-methyl-4,9,11,12-tetrahydrobenzo[3,4]pyrazolo[4′,3′:9,10][1,6]oxaazacycloundecino[8,7,6-hi]indole-2-carboxylic Acid], the EC50 with SUDHL10 [1] (setting [6]) turned out to be 6.9e-06 M; in the series with SUDHL5 [3] (setting [8]), 2.7e-06 M. Moreover, the IC50 is 1.69e-05 M in the series on AMO-1 (setting [7]); 5.2e-06 M in the series with SUDHL10 [2] (Homo sapiens, SU-DHL10, 5 h); 1.1e-08 M against MCL-1; 2.9e-06 M in the series on SUDHL5 [4] (Homo sapiens, SU-DHL-5, 5 h); 1.42e-05 M in the series on MV-4-11 (setting [9]); 4.3e-06 M with SUDHL5 [5] (setting [10]).

Regarding `CCc1nn(C)c2c1-c1c(F)ccc3c(CCCOc4ccc(F)c5ccccc45)c(C(=O)O)n(c13)Cc1ccccc1COC2` (racemic) [Example 89, (rac)-14-Ethyl-15-fluoro-1-(3-((4-fluoronaphthalen-1-yl)oxy)propyl)-12-methyl-4,9,11,12-tetrahydrobenzo[3,4]pyrazolo[4′,3′:9,10][1,6]oxaazacycloundecino[8,7,6-hi]indole-2-carboxylic Acid], the EC50 in the series on SUDHL10 [1] (setting [6]) was 8.3e-06 M; in the series on SUDHL5 [3] (setting [8]) it was 2.9e-06 M. Also, the IC50 in the series on AMO-1 (setting [7]) is 1.28e-05 M; in the series on SUDHL10 [2] (Homo sapiens, SU-DHL10, 5 h), 7.5e-06 M; against MCL-1 it was 1.2e-08 M; with SUDHL5 [4] (Homo sapiens, SU-DHL-5, 5 h), 2.6e-06 M; with MV-4-11 (setting [9]) it was 8.44e-06 M; in the series on SUDHL5 [5] (setting [10]) it was 4e-06 M.

For `Cc1c2c(nn1C)CN(C)Cc1ccccc1Cn1c(C(=O)O)c(CCCOc3cccc4ccccc34)c3cccc-2c31` (single isomer, unassigned; enantiomer 2) [Example 16, 4,5,8-Trimethyl-17-[3-(naphthalen-1-yloxy)propyl]-7,8,9,14-tetrahydro-5H-indolo[1,7-bc]pyrazolo[4,3-e][2,8]benzodiazacycloundecine-16-carboxylic Acid (Enantiomer 2)], the EC50 in the series on SUDHL10 [1] (setting [6]) is > 3.3e-05 M; in the series on SUDHL5 [3] (setting [8]), 2.4e-05 M. The IC50 in the series with AMO-1 (setting [7]) amounted to 2.03e-05 M; in the series on SUDHL10 [2], 3e-05 M; on MCL-1, 1.1e-07 M; in the series with SUDHL5 [4], 2.4e-05 M; in the series on MV-4-11 (setting [9]) it was 1.15e-05 M.

In the case of `CCc1nn(C)c2c1-c1c(Cl)ccc3c(CCCOc4cccc5cc(F)ccc45)c(C(=O)O)n(c13)Cc1ccccc1COC2` (single isomer, unassigned; enantiomer 2) [Example 59, (−)-3-Chloro-4-ethyl-17-{3-[(6-fluoronaphthalen-1-yl)oxy]propyl}-6-methyl-6,7,9,14-tetrahydro-indolo[7,1-fg]pyrazolo[3,4-d][2,8]benzoxazacycloundecine-16-carboxylic acid-N-ethylethanamine Salt (Enantiomer 2)], the EC50 in the series with SUDHL10 [1] (read-out: Caspase SUDHL10 [M] (median), SUDHL10, 3 hours treatment, Caspase-Glo 3/7) was found to be 7.9e-06 M; with SUDHL5 [3] (read-out: Caspase SUDHL5 [M] (median), SUDHL5, 3 hours treatment, Caspase-Glo 3/7), 1.9e-06 M. Moreover, the IC50 was determined as 7.14e-06 M in the series on AMO-1 (Homo sapiens, AMO1, 72 h, read-out: Antiproli AMO-1 [M], AMO-1, 72 hours incubation, CellTiter-Glo); 8.2e-06 M with SUDHL10 [2] (Homo sapiens, SU-DHL10, 5 h); 1e-08 M against MCL-1; 2.2e-06 M with SUDHL5 [4] (Homo sapiens, SU-DHL-5, 5 h); 4.5e-06 M in the series with MV-4-11 (Homo sapiens, MV4-11, 72 h, read-out: Antiproli MV-4-11 [M], MV-4-11, 72 hours incubation, CellTiter-Glo); 2.6e-06 M in the series with SUDHL5 [5] (read-out: Antiproli SUDHL5 [M] (median), SUDHL5, 72 hours incubation, CellTiter-Glo).
